17 compounds from US11840528B2 (Hoffmann-La Roche Inc., priority 2018, dated 2023) can be followed below.

The structures appear in SMILES notation.

Experiment [1] addresses T1, h-GABA-A α5β3γ2 (Homo sapiens, UniProt P18507+P31644). Kind of experiment: [3H]flumazenil competition binding assay, membranes of HEK293 cells expressing GABAA receptors. The following applies: displacement of [3H]-Flumazenil 0.5 nM, HEK293 cells expressing human receptors, mean of two determinations; Table 1. In short, it runs like this:
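Receptor source: human α5β3γ2 transiently transfected into HEK293 cells, membranes in pH 7.5 Krebs-tris. Filtration through GF/C, then scintillation counting.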

The target of experiment [2] is T1, h-GABA-A α5β3γ2. Kind of experiment: Two-electrode voltage clamp electrophysiology in Xenopus laevis oocytes expressing GABAA receptors, modulation of GABA EC20 current. Format: cell-based. On the set-up: host or cells: Xenopus laevis oocytes micro-injected with RNA transcripts of the subunits. To be noted: Table 1; for Efficacy (GABA) %: % modulation of GABA EC20 = 100*(Fold increase-1); for Fold increase h-GABA-A α5β3γ2 oocyte: test compound at approx. 30 fold its Ki, GABA at EC20. In short, it runs like this:
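Modulation is reported as % of the GABA EC20 current, calculated as 100*(Fold increase−1) from the peak ratio between a second GABA response carrying compound (applied at roughly 30-fold Ki) and a preceding control response. Oocytes expressing human α5β3γ2 were clamped at −80 mV at room temperature, 3–5 days after injection.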

For the compound `Cc1ncccc1N1CCN(c2cnn(Cc3c(-c4ccc(Cl)nc4)noc3C)c(=O)c2)CC1` [Example 285, 2-((3-(6-chloropyridin-3-yl)-5-methylisoxazol-4-yl)methyl)-5-(4-(2-methylpyridin-3-yl)piperazin-1-yl)pyridazin-3(2H)-one], at h-GABA-A α5β3γ2 [1], the Ki was 2.6 nM. On h-GABA-A α5β3γ2 [2], the “Efficacy (GABA) %” value is recorded as 84% and the “Fold increase h-GABA-A α5β3γ2 oocyte” value turned out to be 1.84.

As for `CO[C@H]1CN(c2cnn(Cc3c(-c4ccc(Cl)nc4)noc3C)c(=O)c2)[C@H]1C` [Example 286, 2-((3-(6-chloropyridin-3-yl)-5-methylisoxazol-4-yl)methyl)-5-((2S,3S)-3-methoxy-2-methylazetidin-1-yl)pyridazin-3(2H)-one], on h-GABA-A α5β3γ2 [1], the affinity corresponds to a Ki of 3.3 nM. Besides, on h-GABA-A α5β3γ2 [2], the “Efficacy (GABA) %” value came to 112% and the “Fold increase h-GABA-A α5β3γ2 oocyte” value stood at 2.12.

Consider `Cc1onc(-c2ccc(Cl)nc2)c1Cn1ncc(N2C[C@@H](O)[C@H]2C)cc1=O` [Example 289, 2-((3-(6-chloropyridin-3-yl)-5-methylisoxazol-4-yl)methyl)-5-((2R,3R)-3-hydroxy-2-methylazetidin-1-yl)pyridazin-3(2H)-one], for which, on h-GABA-A α5β3γ2 [1], the Ki came to 2.2 nM. At h-GABA-A α5β3γ2 [2], the “Efficacy (GABA) %” value is given as 68% and the “Fold increase h-GABA-A α5β3γ2 oocyte” value amounted to 1.68.

The compound `CCO[C@H]1CN(c2cnn(Cc3c(-c4ccc(Cl)nc4)noc3C)c(=O)c2)[C@H]1C` [Example 291, 2-((3-(6-chloropyridin-3-yl)-5-methylisoxazol-4-yl)methyl)-5-((2S,3S)-3-ethoxy-2-methylazetidin-1-yl)pyridazin-3(2H)-one] displayed a Ki at h-GABA-A α5β3γ2 [1] of 2.8 nM. On h-GABA-A α5β3γ2 [2], the “Efficacy (GABA) %” value was found to be 124% and the “Fold increase h-GABA-A α5β3γ2 oocyte” value was determined as 2.24.

Regarding `CCO[C@@H]1CN(c2cnn(Cc3c(-c4ccc(Cl)nc4)noc3C)c(=O)c2)[C@@H]1C` [Example 294, 2-((3-(6-chloropyridin-3-yl)-5-methylisoxazol-4-yl)methyl)-5-((2R,3R)-3-ethoxy-2-methylazetidin-1-yl)pyridazin-3(2H)-one], the affinity at h-GABA-A α5β3γ2 [1] corresponds to a Ki of 41.8 nM. Also, at h-GABA-A α5β3γ2 [2], the “Efficacy (GABA) %” value is 117% and the “Fold increase h-GABA-A α5β3γ2 oocyte” value is 2.17.

Take `Cc1ccc(-c2noc(CF)c2Cn2ncc(N3CC4(CCCO4)C3)cc2=O)nn1` [Example 295, 2-((5-(fluoromethyl)-3-(6-methylpyridazin-3-yl)isoxazol-4-yl)methyl)-5-(5-oxa-2-azaspiro[3.4]octan-2-yl)pyridazin-3(2H)-one]: on h-GABA-A α5β3γ2 [1], the Ki came out at 16 nM. In addition, on h-GABA-A α5β3γ2 [2], the “Efficacy (GABA) %” value is 74% and the “Fold increase h-GABA-A α5β3γ2 oocyte” value is 1.74.

With `Cc1ccc(-c2noc(C)c2Cn2ncc(N3CCC4(CCCCO4)CC3)cc2=O)nn1` [Example 302, 2-[[5-methyl-3-(6-methylpyridazin-3-yl)isoxazol-4-yl]methyl]-5-(1-oxa-9-azaspiro[5.5]undecan-9-yl)pyridazin-3-one], the affinity on h-GABA-A α5β3γ2 [1] corresponds to a Ki of 2 nM. Moreover, at h-GABA-A α5β3γ2 [2], the “Efficacy (GABA) %” value was 149% and the “Fold increase h-GABA-A α5β3γ2 oocyte” value is 2.49.

Consider `COC1CC2(C1)CN(c1cnn(Cc3c(-c4ccc(Cl)nc4)noc3C)c(=O)c1)C2` [Example 303], for which, at h-GABA-A α5β3γ2 [1], the affinity corresponds to a Ki of 23.7 nM. At h-GABA-A α5β3γ2 [2], the “Efficacy (GABA) %” value stood at 138% and the “Fold increase h-GABA-A α5β3γ2 oocyte” value came out at 2.38.

`Cc1ccc(-c2noc(C)c2Cn2ncc(N3CC(OC4(C)CC4)C3)cc2=O)nn1` [Example 305, 5-[3-(1-methylcyclopropoxy)azetidin-1-yl]-2-[[5-methyl-3-(6-methylpyridazin-3-yl)isoxazol-4-yl]methyl]pyridazin-3-one] gave a Ki on h-GABA-A α5β3γ2 [1] of 2.5 nM. Moreover, on h-GABA-A α5β3γ2 [2], the “Efficacy (GABA) %” value is on record as 100% and the “Fold increase h-GABA-A α5β3γ2 oocyte” value is reported as 2.

`Cc1ccc(-c2noc(C)c2Cn2ncc(N3CC(OCC(F)F)C3)cc2=O)nn1` [Example 306, 5-(3-(2,2-difluoroethoxy)azetidin-1-yl)-2-((5-methyl-3-(6-methylpyridazin-3-yl)isoxazol-4-yl)methyl)pyridazin-3(2H)-one] yielded an inhibitory constant (Ki) on h-GABA-A α5β3γ2 [1] of 1.2 nM. Moreover, on h-GABA-A α5β3γ2 [2], the “Efficacy (GABA) %” value turned out to be 101% and the “Fold increase h-GABA-A α5β3γ2 oocyte” value is recorded as 2.01.

On h-GABA-A α5β3γ2 [1], `Cc1ccc(-c2noc(C)c2Cn2ncc(N3CC4(CCC(C)(C)O4)C3)cc2=O)nn1` [Example 310, 5-(6,6-dimethyl-5-oxa-2-azaspiro[3.4]octan-2-yl)-2-[[5-methyl-3-(6-methylpyridazin-3-yl)isoxazol-4-yl]methyl]pyridazin-3-one] had a Ki of 14.2 nM. Besides, on h-GABA-A α5β3γ2 [2], the “Efficacy (GABA) %” value is listed as 105% and the “Fold increase h-GABA-A α5β3γ2 oocyte” value is reported as 2.05.

`Cc1ccc(-c2noc(C)c2Cn2ncc(N3CC4(CC(OC(F)F)C4)C3)cc2=O)nn1` [Example 315, 5-[6-(difluoromethoxy)-2-azaspiro[3.3]heptan-2-yl]-2-[[5-methyl-3-(6-methylpyridazin-3-yl)isoxazol-4-yl]methyl]pyridazin-3-one] registered a Ki at h-GABA-A α5β3γ2 [1] of 4 nM. On h-GABA-A α5β3γ2 [2], the “Efficacy (GABA) %” value is 140% and the “Fold increase h-GABA-A α5β3γ2 oocyte” value is given as 2.4.

Turning to `Cc1ccc(-c2noc(C)c2Cn2ncc(N3CC4(CCCCCO4)C3)cc2=O)nn1` [Example 316, 2-[[5-methyl-3-(6-methylpyridazin-3-yl)isoxazol-4-yl]methyl]-5-(5-oxa-2-azaspiro[3.6]decan-2-yl)pyridazin-3-one], affinity at h-GABA-A α5β3γ2 [1] was put at a Ki of 4.3 nM. For the same compound, on h-GABA-A α5β3γ2 [2], the “Efficacy (GABA) %” value came out at 100% and the “Fold increase h-GABA-A α5β3γ2 oocyte” value is 2.

`Cc1onc(-c2ccc(Cl)nc2)c1Cn1ncc(N2CC3(C[C@H](C)CCO3)C2)cc1=O` [Example 322, (R)-2-((3-(6-chloropyridin-3-yl)-5-methylisoxazol-4-yl)methyl)-5-(8-methyl-5-oxa-2-azaspiro[3.5]nonan-2-yl)pyridazin-3(2H)-one] had a Ki on h-GABA-A α5β3γ2 [1] of 71.1 nM. At h-GABA-A α5β3γ2 [2], the “Efficacy (GABA) %” value worked out at 73% and the “Fold increase h-GABA-A α5β3γ2 oocyte” value is listed as 1.73.

On to `CCc1onc(-c2ccc(C)nn2)c1Cn1ncc(N2CC3(CCCCO3)C2)cc1=O` [Example 324, 2-((5-ethyl-3-(6-methylpyridazin-3-yl)isoxazol-4-yl)methyl)-5-(5-oxa-2-azaspiro[3.5]nonan-2-yl)pyridazin-3(2H)-one], for which the Ki at h-GABA-A α5β3γ2 [1] is 20 nM. For the same compound, on h-GABA-A α5β3γ2 [2], the “Efficacy (GABA) %” value is 166% and the “Fold increase h-GABA-A α5β3γ2 oocyte” value was determined as 2.66.

`Cc1ccc(-c2noc(CF)c2Cn2ncc(N3CC4(CCCCO4)C3)cc2=O)nn1` [Example 328, 2-((5-(fluoromethyl)-3-(6-methylpyridazin-3-yl)isoxazol-4-yl)methyl)-5-(5-oxa-2-azaspiro[3.5]nonan-2-yl)pyridazin-3(2H)-one]: the affinity at h-GABA-A α5β3γ2 [1], expressed as Ki, was 12.6 nM. Further, at h-GABA-A α5β3γ2 [2], the “Efficacy (GABA) %” value was found to be 70% and the “Fold increase h-GABA-A α5β3γ2 oocyte” value is reported as 1.7.

Take `Cc1onc(-c2ccc(Cl)nc2)c1Cn1ncc(N2CCC3(CCCCO3)CC2)cc1=O` [Example 333, 2-[[3-(6-chloro-3-pyridyl)-5-methyl-isoxazol-4-yl]methyl]-5-(1-oxa-9-azaspiro[5.5]undecan-9-yl)pyridazin-3-one]: on h-GABA-A α5β3γ2 [1], the Ki was 41.4 nM. Besides, on h-GABA-A α5β3γ2 [2], the “Efficacy (GABA) %” value stood at 190% and the “Fold increase h-GABA-A α5β3γ2 oocyte” value was 2.9.
